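Method: 48-hour compound exposure of cells in 96-well plates, five concentrations, linear interpolation of endpoints. GI50 marks 50% less growth.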 Calls of active or inactive are those of the source. No stated cut-off is given here; in the data, active = GI50 up to about 1.1 µM and inactive = higher.
Columns and labels:
Assay in all cases: NCI tumour cell line growth inhibition, 48 h
A549 = system: A549
ACHN = system: ACHN
COLO 205 = system: COLO 205
EKVX = system: EKVX
HOP-62 = system: HOP-62
HT-29 = system: HT-29
IGROV-1 = system: IGROV-1
M14 = system: M14
Malme-3M = system: Malme-3M
NCI-H522 = system: NCI-H522
OVCAR-4 = system: OVCAR-4
OVCAR-8 = system: OVCAR-8
SF-295 = system: SF-295
SF-539 = system: SF-539
SR = system: SR
UACC-62 = system: UACC-62
SNB-75 = system: SNB-75

Measured: GI50

CSC(=N)N1N=C2c3ccccc3CC[C@@H]2[C@@H]1c1ccccc1
inactive: A549 17.6 µM | ACHN 18.3 µM | COLO 205 13.1 µM | EKVX 17.5 µM | HOP-62 15.7 µM | HT-29 10.3 µM | IGROV-1 14.5 µM | M14 13.2 µM | Malme-3M 12.8 µM | NCI-H522 14.2 µM | OVCAR-4 14.8 µM | OVCAR-8 15 µM | SF-295 14.4 µM | SF-539 13.9 µM | SR 10.4 µM | UACC-62 17 µM

Cc1cc(O)nc(CNC(=O)c2cccc(C(=O)NCc3cc(O)nc(C)n3)c2)n1
inactive: A549 > 100 µM | ACHN > 100 µM | COLO 205 > 100 µM | EKVX > 100 µM | HOP-62 > 100 µM | HT-29 > 100 µM | IGROV-1 > 100 µM | M14 > 100 µM | Malme-3M > 100 µM | NCI-H522 > 100 µM | OVCAR-4 > 100 µM | OVCAR-8 > 100 µM | SF-295 > 100 µM | SF-539 > 100 µM | SNB-75 > 100 µM | UACC-62 > 100 µM

Cc1cc2c(=O)cc(-c3ccncc3)oc2c(C(=O)O)c1C
inactive: A549 > 100 µM | ACHN > 100 µM | COLO 205 > 100 µM | EKVX > 100 µM | HOP-62 > 100 µM | HT-29 > 100 µM | IGROV-1 > 100 µM | Malme-3M > 100 µM | OVCAR-8 > 100 µM | SF-295 > 100 µM | SF-539 > 100 µM | SNB-75 > 100 µM | SR > 100 µM | UACC-62 > 100 µM

CC(=O)N1C(=O)C(=O)c2cc(Cl)ccc21
inactive: A549 > 100 µM | ACHN > 100 µM | COLO 205 > 100 µM | EKVX > 100 µM | HT-29 > 100 µM | IGROV-1 > 100 µM | M14 > 100 µM | Malme-3M > 100 µM | OVCAR-4 > 100 µM | OVCAR-8 > 100 µM | SF-295 > 100 µM | SF-539 > 100 µM | SNB-75 > 100 µM | SR > 100 µM | UACC-62 > 100 µM

C#C[C@]1(O)CCCC2=CC(=O)CC[C@@]21C
inactive: A549 > 100 µM | ACHN > 100 µM | COLO 205 > 100 µM | EKVX > 100 µM | HT-29 > 100 µM | IGROV-1 > 100 µM | M14 > 100 µM | Malme-3M > 100 µM | NCI-H522 > 100 µM | OVCAR-8 > 100 µM | SF-295 > 100 µM | SF-539 > 100 µM | SR > 100 µM

Cn1cnc([N+](=O)[O-])c1Sc1nnnn1-c1ccccc1
inactive: A549 23.9 µM | ACHN 13.9 µM | COLO 205 8.09 µM | EKVX 16 µM | HOP-62 > 100 µM | HT-29 15.7 µM | IGROV-1 16.2 µM | M14 10.9 µM | Malme-3M 7.76 µM | NCI-H522 2.34 µM | OVCAR-4 10.4 µM | OVCAR-8 13.8 µM | SF-295 17.8 µM | SF-539 12.2 µM | SNB-75 16.4 µM | UACC-62 13.9 µM

C[Si]12OCCCN(CCO1)CCO2
inactive: A549 > 100 µM | ACHN > 100 µM | COLO 205 > 100 µM | EKVX > 100 µM | HT-29 > 100 µM | IGROV-1 > 100 µM | Malme-3M > 100 µM | NCI-H522 > 100 µM | OVCAR-8 > 100 µM | SF-295 > 100 µM | SF-539 > 100 µM | SNB-75 > 100 µM | SR > 100 µM | UACC-62 > 100 µM

COc1ccc(/C=C/C(C(=O)O)C(=O)O)cc1
inactive: A549 > 100 µM | ACHN 92 µM | COLO 205 > 100 µM | EKVX 78.9 µM | HOP-62 > 100 µM | HT-29 78.9 µM | IGROV-1 > 100 µM | M14 75.7 µM | Malme-3M 69.8 µM | NCI-H522 30.8 µM | OVCAR-4 35.2 µM | OVCAR-8 > 100 µM | SF-295 > 100 µM | SF-539 > 100 µM | SR 34.8 µM | UACC-62 49.2 µM

Cc1cccc(C2=C/C(=C(\SS/C(C(=O)c3ccc(OCC(=O)O)c(Cl)c3Cl)=C3\C=C(c4cccc(C)c4)SS3)C(=O)c3ccc(OCC(=O)O)c(Cl)c3Cl)SS2)c1
inactive: A549 28.8 µM | ACHN 12.4 µM | COLO 205 7.94 µM | EKVX 56.5 µM | HOP-62 47.1 µM | HT-29 27.7 µM | IGROV-1 12.1 µM | M14 22.1 µM | Malme-3M 25.5 µM | NCI-H522 2.12 µM | OVCAR-4 17.2 µM | OVCAR-8 11.7 µM | SF-295 24.5 µM | SF-539 12.4 µM | SNB-75 18.7 µM | UACC-62 13.8 µM

Cc1ccc(NC(=O)CC(=O)n2nc(-c3ccccc3)c(/N=N/c3ccc(Cl)cc3)c2-c2ccccc2)cc1
inactive: A549 28.2 µM | ACHN 27.6 µM | COLO 205 35 µM | EKVX > 100 µM | HOP-62 50.6 µM | HT-29 17.9 µM | IGROV-1 57.7 µM | M14 > 100 µM | Malme-3M > 100 µM | OVCAR-4 23.3 µM | OVCAR-8 26 µM | SF-295 58.9 µM | SF-539 28.8 µM | SNB-75 22.6 µM | UACC-62 > 100 µM

NC(CCSCCF)C(=O)O (centres undefined)
inactive: A549 > 100 µM | ACHN > 100 µM | COLO 205 > 100 µM | EKVX > 100 µM | HOP-62 > 100 µM | HT-29 > 100 µM | IGROV-1 > 100 µM | M14 > 100 µM | NCI-H522 > 100 µM | OVCAR-4 > 100 µM | SF-539 > 100 µM | SR > 100 µM | UACC-62 > 100 µM

O=C(Nc1cccc(O)c1)C(=O)C(C(=O)c1ccc(Cl)c(Cl)c1)C1OC(=O)c2ccccc21 (centres undefined)
inactive: A549 37 µM | ACHN 14.6 µM | COLO 205 15.9 µM | EKVX 18.5 µM | HT-29 27.4 µM | IGROV-1 22.2 µM | M14 20.2 µM | Malme-3M 14.4 µM | NCI-H522 9.82 µM | OVCAR-4 13.3 µM | OVCAR-8 10.7 µM | SF-295 20.3 µM | SNB-75 17.8 µM | SR 4.44 µM | UACC-62 17.5 µM

COC(=O)C(=O)C(C(=O)C(=O)Nc1ccc([N+](=O)[O-])cc1)c1nc2ccccc2nc1O (centres undefined)
inactive: A549 > 100 µM | ACHN 55.2 µM | COLO 205 > 100 µM | HOP-62 39.6 µM | HT-29 81.5 µM | IGROV-1 > 100 µM | M14 42.2 µM | Malme-3M > 100 µM | NCI-H522 > 100 µM | OVCAR-4 > 100 µM | OVCAR-8 > 100 µM | SNB-75 > 100 µM | UACC-62 19.6 µM

NNC(=O)N/N=C1\CNC(=O)C(=O)C1c1nc2ccccc2s1 (centres undefined)
inactive: A549 > 100 µM | ACHN > 100 µM | COLO 205 > 100 µM | EKVX > 100 µM | HOP-62 > 100 µM | HT-29 > 100 µM | IGROV-1 > 100 µM | M14 > 100 µM | Malme-3M > 100 µM | NCI-H522 > 100 µM | OVCAR-4 > 100 µM | OVCAR-8 > 100 µM | SF-295 > 100 µM | SF-539 > 100 µM | SNB-75 > 100 µM | UACC-62 > 100 µM

OC1CN(OC/C=C/c2ccccc2)CC(O)C1O (centres undefined)
inactive: A549 > 100 µM | ACHN > 100 µM | COLO 205 > 100 µM | EKVX > 100 µM | HOP-62 > 100 µM | HT-29 > 100 µM | IGROV-1 > 100 µM | M14 > 100 µM | Malme-3M > 100 µM | OVCAR-4 > 100 µM | OVCAR-8 > 100 µM | SF-295 > 100 µM | SF-539 > 100 µM | SNB-75 > 100 µM | UACC-62 > 100 µM

Oc1cccc2c1NC1=C(CCC/C1=C\c1ccccc1)C2
inactive: A549 > 100 µM | ACHN 53.5 µM | COLO 205 > 100 µM | EKVX > 100 µM | HOP-62 > 100 µM | HT-29 49.8 µM | IGROV-1 > 100 µM | M14 33.5 µM | Malme-3M > 100 µM | NCI-H522 11 µM | OVCAR-8 > 100 µM | SF-295 71.8 µM | SF-539 20.6 µM | SR 50.1 µM

O=C(Nc1cccc(Cl)c1)c1cc2cc(/N=N/c3ccc(Br)cc3)ccc2oc1=O
inactive: A549 90.6 µM | ACHN 23.7 µM | COLO 205 41.4 µM | EKVX 34.3 µM | HOP-62 > 100 µM | HT-29 66.7 µM | IGROV-1 51.5 µM | M14 22.3 µM | Malme-3M > 100 µM | NCI-H522 49.4 µM | OVCAR-4 27.7 µM | OVCAR-8 58.7 µM | SF-295 42 µM | SF-539 56.2 µM | SNB-75 37 µM | UACC-62 14.1 µM

COc1nc(OC)nc(Sc2ccc(Sc3ccc(Sc4nc(OC)nc(OC)n4)cc3)cc2)n1
inactive: A549 > 100 µM | ACHN > 100 µM | COLO 205 > 100 µM | EKVX > 100 µM | HT-29 > 100 µM | IGROV-1 > 100 µM | M14 > 100 µM | Malme-3M > 100 µM | NCI-H522 > 100 µM | OVCAR-4 > 100 µM | OVCAR-8 > 100 µM | SF-295 > 100 µM | SF-539 > 100 µM | SNB-75 > 100 µM | SR 7.52 µM | UACC-62 > 100 µM
